Patent publication US20090197856A1, “ANTIVIRAL COMPOUNDS” (Genelabs Technologies, Inc., priority 2007, published 2009)

Target: T1, NS5B (Hepatitis C virus genotype 1b, UniProt Q9WMX2)
T1 construct: 3 nM NS5B, 20 nM polyC RNA template
Experiment: Polymerase assay, incorporation of radiolabeled GTP with biotinylated oligoG13 primer and polycytidylic acid RNA template
Format: biochemical
Conditions: polyC RNA template, biotin-oligoG13 primer, tritiated GTP, 3 nM NS5B, 30° C., 2 hours
Description: The polymerase activity was also assayed by measuring incorporation of radiolabeled GTP into an RNA product using a biotinylated oligoG13 primer with a polycytidylic acid RNA template. Typically, the assay mixture (40 μL) contains 50 mM HEPES (pH 7.3), 2.5 mM magnesium acetate, 2 mM sodium chloride, 37.5 mM potassium acetate, 5 mM DTT, 0.4 U/mL RNasin, 2.5% glycerol, 3 nM NS5B, 20 nM polyC RNA template, 20 nM biotin-oligoG13 primer, and 0.2 μM tritiated guanosine triphosphate. Test compounds were initially dissolved and diluted in 100% DMSO and further diluted into aqueous buffer, producing a final concentration of 5% DMSO. Typically, compounds were tested at concentrations between 0.2 nM and 10 μM. Reactions were started with addition of tritiated guanosine triphosphate and allowed to continue at 30° C. for 2 hours. Reactions were quenched with 100 μL stop buffer containing 10 mM EDTA and 1 μg/mL streptavidin-coated scintillation proximity beads. Reaction plates were incubated at 4° C. for 10 hours and then incorporation of radioactivity was determined by scintillation counting. The table below lists the IC50 values of compounds determined using this procedure.

T1 sequence (Q9WMX2 2420-3010): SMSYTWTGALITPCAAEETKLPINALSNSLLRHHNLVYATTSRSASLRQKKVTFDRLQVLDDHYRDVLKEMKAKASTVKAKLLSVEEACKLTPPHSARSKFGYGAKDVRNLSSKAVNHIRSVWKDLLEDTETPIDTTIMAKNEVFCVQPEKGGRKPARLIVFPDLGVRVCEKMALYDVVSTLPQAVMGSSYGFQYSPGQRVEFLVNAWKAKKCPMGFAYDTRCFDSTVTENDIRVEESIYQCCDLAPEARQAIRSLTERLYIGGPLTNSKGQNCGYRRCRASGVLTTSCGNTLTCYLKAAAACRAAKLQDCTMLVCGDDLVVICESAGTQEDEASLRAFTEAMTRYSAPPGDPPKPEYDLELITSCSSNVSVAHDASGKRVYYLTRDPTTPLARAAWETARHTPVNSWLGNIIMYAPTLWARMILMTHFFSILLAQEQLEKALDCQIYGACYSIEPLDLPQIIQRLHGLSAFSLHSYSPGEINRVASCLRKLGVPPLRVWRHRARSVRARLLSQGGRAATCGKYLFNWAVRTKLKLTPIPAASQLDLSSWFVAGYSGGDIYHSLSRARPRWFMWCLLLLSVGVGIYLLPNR

## O=C(O)c1ccc2c(C3CCCCC3)c3n(c2c1)CCN1CCC(N2CCCC2)c2cccc-3c21 (centres unmarked) [Compound 287, 15-Cyclohexyl-4-pyrrolidin-1-yl-5,6,8,9-tetrahydro-4H-indolo[1′,2′:4,5][1,4]diazepino[6,7,1-ij]quinoline-12-carboxylic acid]
  IC50: 2.71 nM

## O=C(O)c1ccc2c(C3CCCCC3)c3n(c2c1)CCCn1cc(N2CCCCC2)c2cccc-3c21 [Compound 261]
  IC50: 3 nM

## O=C(O)c1ccc2c(C3CCCCC3)c3n(c2c1)CCN1CCC(NC2CCC2)c2cccc-3c21 (centres unmarked) [Compound 279]
  IC50: 4.02 nM

## O=C(O)c1ccc2c(C3CCCCC3)c3n(c2c1)CCN1CCC(N2CCOCC2)c2cccc-3c21 (centres unmarked) [Compound 289]
  IC50: 2.03 nM

## CN(C)C(=O)c1c(CN2CCCC2)c2cccc3c2n1CCCn1c-3c(C2CCCCC2)c2ccc(C(=O)O)cc21 [Compound 309]
  IC50: 6 nM

## CCN(C)Cc1c(C(=O)N2CCN(C(C)=O)CC2)n2c3c(cccc13)-c1c(C3CCCCC3)c3ccc(C(=O)O)cc3n1CCC2 [Compound 325]
  IC50: 7 nM

## CC(C)N[C@@H]1CCN2CCn3c(c(C4CCCCC4)c4ccc(C(=O)O)cc43)-c3cccc1c32 [Compound 292, (4R)-15-cyclohexyl-4-(isopropylamino)-5,6,8,9-tetrahydro-4H-indolo[1′,2′:4,5][1,4]diazepino[6,7,1-ij]quinoline-12-carboxylic acid]
  IC50: 2.02 nM

## CCC1(CC)C(=O)N2CCCn3c(c(C4CCCCC4)c4ccc(C(=O)O)cc43)-c3cccc1c32 [Compound 266, 12-cyclohexyl-1,1-diethyl-2-oxo-1,2,5,6-tetrahydro-4H-[1,5]diazocino[1,2-a:5,4,3-h′i′]diindole-9-carboxylic acid]
  IC50: 11 nM

## NCCC1CCN2CCn3c(c(C4CCCCC4)c4ccc(C(=O)O)cc43)-c3cccc1c32 (single isomer, unassigned) [Compound 302, 4-(2-Aminoethyl)-15-cyclohexyl-5,6,8,9-tetrahydro-4H-indolo[1′,2′:4,5][1,4]diazepino[6,7,1-ij]quinoline-12-carboxylic acid]
  IC50: 2.68 nM

## O=C(O)c1ccc2c(C3CCCCC3)c3n(c2c1)CCCN1C(=O)Cc2cccc-3c21 [Compound 270, 12-cyclohexyl-2-oxo-1,2,5,6-tetrahydro-4H-[1,5]diazocino[1,2-a:5,4,3-h′i′]diindole-9-carboxylic acid]
  IC50: 26 nM

## CN(C)C(=O)c1c(CN2CCOCC2)c2cccc3c2n1CCCn1c-3c(C2CCCCC2)c2ccc(C(=O)O)cc21 [Compound 311]
  IC50: 5 nM
